US20130196986A1 (priority 2010, published 2013)

molecular target: T1, P2X7 receptor (Homo sapiens, UniProt Q99572); assay: Ca++ flux assay (FLIPR) in P2X7-HEK-293 cell line stably expressing the full length P2X7 receptor, Bz-ATP activation; assay type: cell-based; conditions: P2X7-HEK-293 cells; agonist Bz-ATP; fluorescence as total area over 90 seconds; read-out: P2X7 Ca Flux hu IC50
T1 construct: stably expressing the full length P2X7 receptor; expressed in transfected cells
T1 sequence (Q99572 1-595): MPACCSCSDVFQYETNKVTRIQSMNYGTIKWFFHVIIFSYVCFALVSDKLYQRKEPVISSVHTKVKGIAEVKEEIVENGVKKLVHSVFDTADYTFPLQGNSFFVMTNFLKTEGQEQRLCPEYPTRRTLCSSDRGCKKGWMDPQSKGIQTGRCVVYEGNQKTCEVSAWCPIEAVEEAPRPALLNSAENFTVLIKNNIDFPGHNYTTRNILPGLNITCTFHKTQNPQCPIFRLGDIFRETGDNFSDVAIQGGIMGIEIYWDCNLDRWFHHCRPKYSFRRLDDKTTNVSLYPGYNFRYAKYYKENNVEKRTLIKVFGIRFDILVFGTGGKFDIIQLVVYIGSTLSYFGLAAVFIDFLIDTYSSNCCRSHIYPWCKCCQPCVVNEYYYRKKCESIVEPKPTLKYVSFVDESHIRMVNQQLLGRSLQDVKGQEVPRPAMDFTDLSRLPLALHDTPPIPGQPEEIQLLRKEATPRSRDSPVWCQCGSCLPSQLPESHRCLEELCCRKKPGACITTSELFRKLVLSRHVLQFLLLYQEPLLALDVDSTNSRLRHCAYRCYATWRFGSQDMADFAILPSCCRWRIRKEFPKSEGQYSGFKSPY
Summary of the method: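 HEK-293 cells stably expressing full-length P2X7 were loaded with Ca++-sensitive dye for 1 h, with compound added during loading. Cells were stimulated with Bz-ATP on FLIPR. Fluorescence was integrated as total area over 90 s, and IC50 was taken as 50% inhibition of the maximal Ca++ response.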

SMILES	IC50 [nM]
Cc1c(Cl)cccc1-n1ccn2c(SCc3cc(Cl)cc(C(F)(F)F)c3)nnc2c1=O [Compound 78, 7-(3-chloro-2-methylphenyl)-3-(3-chloro-5-(trifluoromethyl)benzylthio)-[1,2,4]triazolo[4,3-a]pyrazin-8(7H)-one]	597
COc1cc(CSc2nnc3c(=O)n(-c4cccc(Cl)c4C)ccn23)cc(OC)c1 [Compound 79, 7-(3-chloro-2-methylphenyl)-3-(3,5-dimethoxybenzylthio)-[1,2,4]triazolo[4,3-a]pyrazin-8(7H)-one]	1330
Cc1c(Br)cccc1-n1ccn2c(SCc3cc(Cl)cc(Cl)c3)nnc2c1=O [Compound 83, 7-(3-brorno-2-methylphenyl)-3-(3,5-dichlorobenzylthio)-[1,2,4]triazolo[4,3-a]pyrazin-8(7H)-one]	855
Cc1c(Cl)cccc1-n1ccn2c(SCc3cccc(OC(F)(F)F)c3)nnc2c1=O [Compound 85, 7-(3-chloro-2-methylphenyI)-3-(3-(trifluoromethoxy)benzylthio)-[1,2,4]triazolo[4,3-a]pyrazin-8(7H)-one]	503
Cc1c(Cl)cccc1-n1ccn2c(SCc3cc(C(F)(F)F)cc(C(F)(F)F)c3)nnc2c1=O [Compound 88, 3-(3,5-bis(trifluoromethyl)benzylthio)-7-(3-chloro-2-methylphenyl)-[1,2,4]triazolo[4,3-a]pyrazin-8(7H)-one]	8370
COC(=O)c1ccccc1CSc1nnc2c(=O)n(-c3cccc(Cl)c3C)ccn12 [Compound 90, methyl 2-((7-(3-chloro-2-methylphenyl)-8-oxo-7,8-dihydro-[1,2,4]triazolo[4,3-a]pyrazin-3-ylthio)methyl)benzoate]	643
COC(=O)c1cccc(CSc2nnc3c(=O)n(-c4cccc(Cl)c4C)ccn23)c1 [Compound 91, methyl 3-((7-(3-chloro-2-methylphenyl)-8-oxo-7,8-dihydro-[1,2,4]triazolo[4,3-a]pyrazin-3-ylthio)methyl)benzoate]	3250
Cc1nc(CSc2nnc3c(=O)n(-c4cccc(Cl)c4C)ccn23)cs1 [Compound 94, 7-(3-chloro-2-methylphenyl)-3((2-methylthiazol-4-yl)methylthio)-[1,2,4]triazolo[4,3-a]pyrazin-8(7H)-one]	2560
Cc1c(Cl)cccc1-n1ccn2c(SCc3cc(Cl)cc(Cl)c3)nnc2c1=O [Compound 101, 7-(3-chloro-2-methylphenyl)-3-(3,5-dichlorobenzylthio)-[1,2,4]triazolo[4,3-a]pyrazin-8(7H)-one]	167
Cc1c(Cl)cccc1-n1ccn2c(SCc3cc(F)c(F)c(F)c3)nnc2c1=O [Compound 102, 7-(3-chloro-2-methylphenyl)-3-(3,4,5-trifluorobenzylthio)-[1,2,4]triazolo[4,3-a]pyrazin-8(7H)-one]	925
Cc1c(Cl)cccc1-n1ccn2c(SCc3ccc(Cl)c(Cl)c3)nnc2c1=O [Compound 103, 7-(3-chloro-2-methylphenyl)-3-(3,4-dichlorobenzylthio)-[1,2,4]triazolo[4,3-a]pyrazin-8(7H)-one]	1300
Cc1c(Cl)cccc1-n1ccn2c(SCc3c(F)cccc3F)nnc2c1=O [Compound 105, 7-(3-chloro-2-methylphenyl)-3-(2,6-difluorobenzylthio)-[1,2,4]triazolo[4,3-a]pyrazin-8(7H)-one]	389
Cc1c(Cl)cccc1-n1ccn2c(SCc3c(F)c(F)c(F)c(F)c3F)nnc2c1=O [Compound 106, 7-(3-chloro-2-methylphenyl)-3-(perfluorobenzylthio)-[1,2,4]triazolo[4,3-a]pyrazin-8(7H)-one]	387

Further lines, results first:

IC50 [nM]	SMILES
533	COc1c(Cl)cccc1-n1ccn2c(SCc3ccccc3)nnc2c1=O [Compound 80, 3-(benzylthio)-7-(3-chloro-2-methoxyphenyl)-[1,2,4]triazolo[4,3-a]pyrazin-8(7H)-one]
946	O=c1c2nnc(SCc3ccccc3)n2ccn1-c1ccccc1Cl [Compound 81, 3-(benzylthio)-7-(2-chlorophenyl)-[1,2,4]triazolo[4,3-a]pyrazin-8(7H)-one]
374	O=c1c2nnc(SCc3ccccc3)n2ccn1-c1cccc(Cl)c1F [Compound 82, 3-(benzylthio)-7-(3-chloro-2-fluorophenyl)-[1,2,4]triazolo[4,3-a]pyrazin-8(7H)-one]
446	Cc1c(Cl)cccc1-n1ccn2c(SCc3cccc(Br)c3)nnc2c1=O [Compound 86, 3-(3-bromobenzylthio)-7-(3-chloro-2-methylphenyl)-[1,2,4]triazolo[4,3-a]pyrazin-8(7H)-one]
434	Cc1c(Cl)cccc1-n1ccn2c(SCc3ccccc3C#N)nnc2c1=O [Compound 87, 2((7-(3-chloro-2-methylphenyl)-8-oxo-7,8-dihydro-[1,2,4]triazolo[4,3-a]pyrazin-3-ylthio)methyl)benzonitrile]
581	Cc1c(Cl)cccc1-n1ccn2c(SCc3cccc(C(F)(F)F)c3)nnc2c1=O [Compound 89, 7-(3-chloro-2-methylphenyl)-3-(3-(trifluoromethyl)benzylthio)-[1,2,4]triazolo[4,3-a]pyrazin-8(7H)-one]
209	Cc1cccc(-n2ccn3c(SCc4ccccc4)nnc3c2=O)c1C [Compound 92, 3-(benzylthio)-7-(2,3-dimethylphenyl)-[1,2,4]triazolo[4,3-a]pyrazin-8(7H)-one]
38.2	Cc1c(-n2ccn3c(SCc4ccccc4)nnc3c2=O)cccc1C(F)(F)F [Compound 93, 3-(benzylthio)-7-(2-methyl-3-(trifluoromethyl)phenyl)-[1,2,4]triazolo[4,3-a]pyrazin-8(7H)-one]
110	O=c1c2nnc(SCc3ccccc3)n2ccn1-c1cccc(Cl)c1Cl [Compound 95, 3-(benzylthio)-7-(2,3-dichlorophenyl)-[1,2,4]triazolo[4,3-a]pyrazin-8(7H)-one]
4220	Cc1c(Cl)cccc1-n1ccn2c(SCc3cccnc3)nnc2c1=O [Compound 96, 7-(3-chloro-2-methylphenyl)-3-(pyridin-3-ylmethylthio)-[1,2,4]triazolo[4,3-a]pyrazin-8(7H)-one]
2310	Cc1c(Cl)cccc1-n1ccn2c(SCc3ccc4ccccc4c3)nnc2c1=O [Compound 97, 7-(3-chloro-2-methylphenyl)-3-(naphthalen-2-ylmethylthio)-[1,2,4]triazolo[4,3-a]pyrazin-8(7H)-one]
2340	Cc1c(Cl)cccc1-n1ccn2c(SCc3ccccn3)nnc2c1=O [Compound 98, 7-(3-chloro-2-methylphenyl)-3-(pyridin-2-ylmethylthio)-[1,2,4]thazolo[4,3-a]pyrazin-8(7H)-one]
250	Cc1c(Br)cccc1-n1ccn2c(SCc3ccccc3)nnc2c1=O [Compound 99, 3-(benzylthio)-7-(3-bromo-2-methylphenyl)-[1,2,4]-triazolo[4,3-a]pyrazin-8(7H)-one]
3920	O=c1c2nnc(SCc3ccccc3)n2ccn1-c1ccc(Cl)c(Cl)c1 [Compound 100, 3-(benzylthio)-7-(3,4-dichlorophenyl)-[1,2,4]triazolo[4,3-a]pyrazin-8(7H)-one]
2740	Cc1c(Cl)cccc1-n1ccn2c(SCc3ccc(C(C)C)cc3)nnc2c1=O [Compound 104, 7-(3-chloro-2-methylphenyl)-3-(4-isopropylbenzylthio)-[1,2,4]triazolo[4,3-a]pyrazin-8(7H)-one]
